The values that follow come from the Kinase Knowledgebase extract (Sharma et al. 2016).

The target of assay [1] is EGFR (human) (UniProt P00533). Conditions: a431.
Assay [2] addresses EGFR (human) (UniProt P00533).

pIC50: −log10 of the molar value.

Sequence of EGFR (human) (P00533 whole entry, looked up): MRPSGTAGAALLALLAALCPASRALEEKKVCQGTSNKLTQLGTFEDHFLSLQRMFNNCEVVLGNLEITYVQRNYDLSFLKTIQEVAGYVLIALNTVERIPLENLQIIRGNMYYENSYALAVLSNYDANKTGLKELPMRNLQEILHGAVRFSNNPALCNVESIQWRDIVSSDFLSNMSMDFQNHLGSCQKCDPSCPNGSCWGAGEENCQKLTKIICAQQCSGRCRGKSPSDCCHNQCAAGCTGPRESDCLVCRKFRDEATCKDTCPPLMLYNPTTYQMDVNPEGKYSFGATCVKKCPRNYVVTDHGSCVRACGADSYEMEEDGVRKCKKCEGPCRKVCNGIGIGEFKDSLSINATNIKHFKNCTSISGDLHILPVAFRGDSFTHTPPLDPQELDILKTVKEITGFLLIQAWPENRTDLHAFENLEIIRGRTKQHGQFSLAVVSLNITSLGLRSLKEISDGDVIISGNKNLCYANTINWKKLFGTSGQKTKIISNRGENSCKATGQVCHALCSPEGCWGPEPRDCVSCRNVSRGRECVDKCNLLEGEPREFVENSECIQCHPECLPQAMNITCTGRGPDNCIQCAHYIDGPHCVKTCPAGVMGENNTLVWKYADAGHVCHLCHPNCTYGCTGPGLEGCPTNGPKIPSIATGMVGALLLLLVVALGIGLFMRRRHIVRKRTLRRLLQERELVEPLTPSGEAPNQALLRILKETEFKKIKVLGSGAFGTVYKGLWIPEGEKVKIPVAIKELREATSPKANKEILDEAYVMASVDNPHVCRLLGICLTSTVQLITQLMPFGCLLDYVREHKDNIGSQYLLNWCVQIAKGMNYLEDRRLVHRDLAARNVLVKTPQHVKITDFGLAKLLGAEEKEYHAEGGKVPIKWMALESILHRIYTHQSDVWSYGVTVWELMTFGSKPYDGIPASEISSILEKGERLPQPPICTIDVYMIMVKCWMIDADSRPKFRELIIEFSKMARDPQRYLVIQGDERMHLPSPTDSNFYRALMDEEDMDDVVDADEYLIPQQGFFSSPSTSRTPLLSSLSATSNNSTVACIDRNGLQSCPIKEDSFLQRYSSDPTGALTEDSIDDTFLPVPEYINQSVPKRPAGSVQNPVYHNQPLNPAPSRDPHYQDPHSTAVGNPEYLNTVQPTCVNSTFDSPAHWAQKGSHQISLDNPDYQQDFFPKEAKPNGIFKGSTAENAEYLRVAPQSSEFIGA

With `CS(=O)(=O)CCNCc1ccc(-c2ccc3ncnc(Nc4ccc(OCc5cccc(F)c5)c(Cl)c4)c3c2)[nH]1`, the figures for the pIC50 in assay [1] and in assay [2] were 6.92 and 8.59, respectively.

Consider `O=C(NCCN1CCOCC1)c1cn(-c2ccc3ncnc(Nc4ccc(OCc5ccccn5)c(Cl)c4)c3c2)cc1CCO`, for which the pIC50 was 7.60 in assay [1] and 7.52 in assay [2].

As to `CCN(CC)CCNC(=O)c1cn(-c2ccc3ncnc(Nc4ccc(OCc5cccc(F)c5)c(Cl)c4)c3c2)cc1CCO`, the negative-log IC50 (pIC50) in assay [1] is 6.17; in assay [2], 8.44.

Regarding `OC(CN1CCC(N2CCCCC2)CC1)Cn1ccc(-c2ccc3ncnc(Nc4ccc5c(cnn5Cc5cccc(F)c5)c4)c3c2)c1` (configuration not stated), the pIC50 in assay [1] is 6.28.

As to `Cc1ccc(Oc2ccc(Nc3ncnc4ccc(-n5cc(CCO)c(C(=O)NCCN6CCCC6)c5)cc34)cc2C)cn1`, the negative-log IC50 (pIC50) in assay [1] is 6.85.

`OC1CCN(C[C@@H](O)Cn2ccc(-c3ccc4ncnc(Nc5ccc(OCc6cccc(F)c6)c(Cl)c5)c4c3)c2)CC1` gave a pIC50 in assay [1] of 5.87.

As for `CN1CCN(CC(O)Cn2ccc(-c3ccc4ncnc(Nc5ccc6c(cnn6Cc6cccc(F)c6)c5)c4c3)c2)CC1` (configuration not stated), the values for the pIC50 in assay [1] and in assay [2] were 6.11 and 8.70, respectively.

For the molecule `Fc1cccc(COc2ccc(Nc3ncnc4ccc(-c5ccn(CCN6CCN(CC7CC7)CC6)c5)cc34)cc2Cl)c1`, the values for the pIC50 in assay [1] and in assay [2] were 5.82 and 7.03, respectively.

`OC1CCN(C[C@H](O)Cn2ccc(-c3ccc4ncnc(Nc5ccc(OCc6cccc(F)c6)c(Cl)c5)c4c3)c2)CC1` showed a negative-log IC50 (pIC50) in assay [1] of 6.18.

Consider `O=C1CN(CC(O)Cn2ccc(-c3ccc4ncnc(Nc5ccc(OCc6cccc(F)c6)c(Cl)c5)c4c3)c2)CCN1` (configuration not stated), for which the negative logarithm of the IC50 (pIC50) in assay [1] was 5.92.

Consider `OC(CN1CCN(CC2CC2)CC1)Cn1ccc(-c2ccc3ncnc(Nc4ccc(OCc5cccc(F)c5)c(Cl)c4)c3c2)c1` (configuration not stated), for which the results for the negative logarithm of the IC50 (pIC50) in assay [1] and in assay [2] were 6.39 and 7.10, respectively.

In the case of `O=S1(=O)CCC(O)(CNCc2cc(-c3ccc4ncnc(Nc5ccc6c(cnn6Cc6cccc(F)c6)c5)c4c3)c[nH]2)CC1`, the pIC50 was 5.54 in assay [1] and 8.22 in assay [2].

Regarding `O=C1OCCc2cn(-c3ccc4ncnc(Nc5ccc(OCc6ccccn6)c(Cl)c5)c4c3)cc21`, the figures for the pIC50 in assay [1] and in assay [2] were 6.09 and 8.10, respectively.

In assay [1], `Fc1cccc(COc2ccc(Nc3ncnc4ccc(-c5ccn(C[C@H]6CCO6)c5)cc34)cc2Cl)c1` showed a negative-log IC50 (pIC50) of 6.42.

On to `Fc1cccc(Cn2ncc3cc(Nc4ncnc5ccc(-n6cccc6)cc45)ccc32)c1`, for which the figures for the pIC50 in assay [1] and in assay [2] were 7.10 and 8.22, respectively.

Regarding `OCCc1cn(-c2ccc3ncnc(Nc4ccc(F)c(Cl)c4)c3c2)cc1CN1CCCC1`, the pIC50 in assay [1] was 7.22.

For `COC[C@H](O)Cn1ccc(-c2ccc3ncnc(Nc4ccc(OCc5cccc(F)c5)c(Cl)c4)c3c2)c1`, the negative-log IC50 (pIC50) in assay [1] was 6.34. This pIC50 lies 0.88 log units lower than the previous one.

In assay [1], `O=C(NCCCN1CCOCC1)c1cn(-c2ccc3ncnc(Nc4ccc(F)c(Cl)c4)c3c2)cc1CCO` showed a negative-log IC50 (pIC50) of 6.25.

As for `O=C(c1cn(-c2ccc3ncnc(Nc4ccc(OCc5cccc(F)c5)c(Cl)c4)c3c2)cc1CCO)N1CCCC1`, the pIC50 in assay [1] was 7.05; in assay [2], 7.82.

In turn, `CS(=O)(=O)N1CCN(CC(O)Cn2ccc(-c3ccc4ncnc(Nc5ccc(OCc6cccc(F)c6)c(Cl)c5)c4c3)c2)CC1` (configuration not stated) showed a negative logarithm of the IC50 (pIC50) in assay [1] of 5.93.

Take `CCN(CC)CCn1ccc(-c2ccc3ncnc(Nc4ccc5c(cnn5Cc5cccc(F)c5)c4)c3c2)c1`: the negative-log IC50 (pIC50) is 5.99 in assay [1] and 8.22 in assay [2].

`OC(CN1CCSC1)Cn1ccc(-c2ccc3ncnc(Nc4ccc(OCc5cccc(F)c5)c(Cl)c4)c3c2)c1` (configuration not stated): the negative-log IC50 (pIC50) in assay [1] was 6.26.

With `OC(CN1CC[C@@H](O)C1)Cn1ccc(-c2ccc3ncnc(Nc4ccc(OCc5cccc(F)c5)c(Cl)c4)c3c2)c1` (some centres not stated), in assay [1], the negative-log IC50 (pIC50) was 6.44. This pIC50 and that of the molecule before are within 0.2 log units of each other.

As for `Fc1cccc(COc2ccc(Nc3ncnc4ccc(-c5ccn(Cc6ccncc6)c5)cc34)cc2Cl)c1`, the values for the negative logarithm of the IC50 (pIC50) in assay [1] and in assay [2] were 7.31 and 7.10, respectively.

On to `Fc1cccc(COc2ccc(Nc3ncnc4ccc(-n5cccc5)cc34)cc2Cl)c1`, for which the figures for the negative-log IC50 (pIC50) in assay [1] and in assay [2] were 6.44 and 8.52, respectively.

`O[C@@H](CN1CCOCC1)Cn1ccc(-c2ccc3ncnc(Nc4ccc5c(cnn5Cc5cccc(F)c5)c4)c3c2)c1`: the pIC50 was 6.13 in assay [1] and 8.10 in assay [2].

With `OCCN1CCN(CC(O)Cn2ccc(-c3ccc4ncnc(Nc5ccc6c(cnn6Cc6cccc(F)c6)c5)c4c3)c2)CC1` (configuration not stated), the pIC50 in assay [1] was 6.34.

In the case of `OC(CN1CC[C@@H](F)C1)Cn1ccc(-c2ccc3ncnc(Nc4ccc(OCc5cccc(F)c5)c(Cl)c4)c3c2)c1` (some centres not stated), the pIC50 in assay [1] is 6.17.

In turn, `OCCC1CCN(CC(O)Cn2ccc(-c3ccc4ncnc(Nc5ccc6c(cnn6Cc6cccc(F)c6)c5)c4c3)c2)CC1` (configuration not stated) had a pIC50 in assay [1] of 6.56. This pIC50 is 0.39 log units higher than that of the molecule before.

Consider `OCc1cc(-c2ccc3ncnc(Nc4ccc(OCc5cccc(F)c5)c(Cl)c4)c3c2)c[nH]1`, for which the pIC50 in assay [1] was 5.34.

In assay [1], `O=C(Cn1ccc(-c2ccc3ncnc(Nc4ccc(OCc5cccc(F)c5)c(Cl)c4)c3c2)c1)N1CCC(N2CCOCC2)CC1` had a negative logarithm of the IC50 (pIC50) of 6.07.

On to `CC(Nc1ncnc2ccc(-n3cc(CCO)c(CN4CCCCC4)c3)cc12)c1ccccc1` (configuration not stated), for which the pIC50 in assay [1] was 6.25.

`CN1CCN(Cc2cn(-c3ccc4ncnc(Nc5ccc(F)c(Cl)c5)c4c3)cc2CCO)CC1`: in assay [1], the negative-log IC50 (pIC50) was 6.68.

Molecule `Fc1cccc(COc2ccc(Nc3ncnc4ccc(-c5ccn(CCN6CCC(N7CCCCC7)CC6)c5)cc34)cc2Cl)c1` gave a negative-log IC50 (pIC50) in assay [1] of 6.35.

Regarding `CN(C)Cc1cn(-c2ccc3ncnc(Nc4ccc(F)c(Cl)c4)c3c2)cc1CCO`, the negative-log IC50 (pIC50) in assay [1] is 6.82.

In assay [1], `CC(Nc1ncnc2ccc(-n3cc(CCO)c(CN4CCCC4)c3)cc12)c1ccccc1` (configuration not stated) gave a pIC50 of 6.89.

Molecule `Fc1cccc(Cn2ncc3cc(Nc4ncnc5ccc(-c6ccn(CCOC7CCCCO7)c6)cc45)ccc32)c1` (configuration not stated) showed a pIC50 in assay [1] of 6.45.

In the case of `O=S1(=O)CCN(CC(O)Cn2ccc(-c3ccc4ncnc(Nc5ccc(OCc6cccc(F)c6)c(Cl)c5)c4c3)c2)CC1` (configuration not stated), the negative logarithm of the IC50 (pIC50) in assay [1] is 5.84.

`CCOC(=O)C1CCCN(CC(O)Cn2ccc(-c3ccc4ncnc(Nc5ccc(OCc6cccc(F)c6)c(Cl)c5)c4c3)c2)C1` (configuration not stated) gave a negative-log IC50 (pIC50) in assay [1] of 5.77.

In turn, `O=S1(=O)CCC(NCC(O)Cn2ccc(-c3ccc4ncnc(Nc5ccc6c(cnn6Cc6cccc(F)c6)c5)c4c3)c2)CC1` (configuration not stated) showed a negative-log IC50 (pIC50) in assay [1] of 6.04. This pIC50 is 0.27 log units higher than that of the molecule before.

Molecule `OC(CNCCN1CCOCC1)Cn1ccc(-c2ccc3ncnc(Nc4ccc5c(cnn5Cc5cccc(F)c5)c4)c3c2)c1` (configuration not stated) gave a pIC50 in assay [1] of 6.15.

`CCOC(=O)N1CCN(CC(O)Cn2ccc(-c3ccc4ncnc(Nc5ccc6c(cnn6Cc6cccc(F)c6)c5)c4c3)c2)CC1` (configuration not stated) gave a negative logarithm of the IC50 (pIC50) in assay [1] of 6.57. Compared with the last molecule, the pIC50 is 0.42 log units higher.

Molecule `CC(=O)N[C@@H]1CCN(CC(O)Cn2ccc(-c3ccc4ncnc(Nc5ccc6c(cnn6Cc6cccc(F)c6)c5)c4c3)c2)C1` (some centres not stated) showed a pIC50 in assay [1] of 6.46.

As for `O=S1(=O)CCC(NCC(O)Cn2ccc(-c3ccc4ncnc(Nc5ccc(OCc6cccc(F)c6)c(Cl)c5)c4c3)c2)CC1` (configuration not stated), the pIC50 in assay [1] was 6.33.

As for `Fc1cccc(Cn2ncc3cc(Nc4ncnc5ccc(-c6ccn(CCN7CCCC7)c6)cc45)ccc32)c1`, the pIC50 in assay [1] is 6.21. The pIC50 values of the last two molecules are within 0.2 log units of each other.

In assay [1], `Fc1cccc(Cn2ncc3cc(Nc4ncnc5ccc(-c6ccn(CC7CNCCO7)c6)cc45)ccc32)c1` (configuration not stated) had a pIC50 of 6.15.

For `O=S1(=O)CCC(CNCc2ccn(-c3ccc4ncnc(Nc5ccc(OCc6cccc(F)c6)c(Cl)c5)c4c3)c2)CC1`, in assay [1], the negative logarithm of the IC50 (pIC50) was 6.31.

For `O=C(Cn1ccc(-c2ccc3ncnc(Nc4ccc(OCc5cccc(F)c5)c(Cl)c4)c3c2)c1)N1CCSC1`, the pIC50 in assay [1] is 6.30.

Take `CCOC(=O)C1CCN(C(=O)Cn2ccc(-c3ccc4ncnc(Nc5ccc(OCc6cccc(F)c6)c(Cl)c5)c4c3)c2)CC1`: the negative logarithm of the IC50 (pIC50) in assay [1] is 5.48. Against the preceding molecule, the pIC50 is 0.82 log units lower.

The molecule `OCCN1CCN(CC(O)Cn2ccc(-c3ccc4ncnc(Nc5ccc(OCc6cccc(F)c6)c(Cl)c5)c4c3)c2)CC1` (configuration not stated) showed a pIC50 in assay [1] of 6.15.

Molecule `Fc1cccc(COc2ccc(Nc3ncnc4ccc(-c5ccn(Cc6ccccn6)c5)cc34)cc2Cl)c1` had a negative-log IC50 (pIC50) in assay [1] of 6.05. The pIC50 values of the last two molecules are within 0.2 log units of each other.

On to `COCCNCC(O)Cn1ccc(-c2ccc3ncnc(Nc4ccc5c(cnn5Cc5cccc(F)c5)c4)c3c2)c1` (configuration not stated), for which the pIC50 in assay [1] was 6.24.

In the case of `Fc1cccc(Cn2ncc3cc(Nc4ncnc5ccc(-c6ccn(CCCN7CCOCC7)c6)cc45)ccc32)c1`, the pIC50 in assay [1] was 6.37.

As for `CC(Nc1ncnc2ccc(-n3cc(CCO)c(C(=O)N4CCOCC4)c3)cc12)c1ccccc1` (configuration not stated), the pIC50 in assay [1] is 6.85.

Molecule `O[C@@H](CN1CCC(N2CCCCC2)CC1)Cn1ccc(-c2ccc3ncnc(Nc4ccc(OCc5cccc(F)c5)c(Cl)c4)c3c2)c1` showed a pIC50 in assay [1] of 6.38.

In assay [1], `CS(=O)(=O)CCn1ccc(-c2ccc3ncnc(Nc4ccc(OCc5cccc(F)c5)c(Cl)c4)c3c2)c1` showed a negative-log IC50 (pIC50) of 6.19.

`Fc1cccc(COc2ccc(Nc3ncnc4ccc(-c5ccn(CCc6ccccn6)c5)cc34)cc2Cl)c1` gave a pIC50 in assay [1] of 5.92.

In assay [1], `CCOC(=O)C1CCN(CC(O)Cn2ccc(-c3ccc4ncnc(Nc5ccc(OCc6cccc(F)c6)c(Cl)c5)c4c3)c2)CC1` (configuration not stated) had a negative-log IC50 (pIC50) of 5.70.

As to `NC(=O)C1CCN(CC(O)Cn2ccc(-c3ccc4ncnc(Nc5ccc(OCc6cccc(F)c6)c(Cl)c5)c4c3)c2)CC1` (configuration not stated), in assay [1], the pIC50 was 6.86.

On to `Fc1cccc(COc2ccc(Nc3ncnc4ccc(-c5ccn(CCN6CCN(C7CC7)CC6)c5)cc34)cc2Cl)c1`, for which, in assay [1], the pIC50 was 5.90.

Turning to `O=C(Cn1ccc(-c2ccc3ncnc(Nc4ccc(OCc5cccc(F)c5)c(Cl)c4)c3c2)c1)N1CCCC1`, the pIC50 in assay [1] is 6.32.

For `OCCc1cn(-c2ccc3ncnc(Nc4ccc(F)c(Cl)c4)c3c2)cc1CN1CCCCC1`, in assay [1], the negative-log IC50 (pIC50) is 6.66.

On to `O=C(Cn1ccc(-c2ccc3ncnc(Nc4ccc(OCc5cccc(F)c5)c(Cl)c4)c3c2)c1)N1CCS(=O)(=O)CC1`, for which, in assay [1], the negative-log IC50 (pIC50) is 5.83.

Regarding `Fc1cccc(COc2ccc(Nc3ncnc4ccc(-c5ccn(CCN6CCCCC6)c5)cc34)cc2Cl)c1`, the pIC50 in assay [1] was 5.54.

For the molecule `O[C@@H](CNC1CC1)Cn1ccc(-c2ccc3ncnc(Nc4ccc(OCc5cccc(F)c5)c(Cl)c4)c3c2)c1`, in assay [1], the pIC50 is 6.15. Compared with the last molecule, the pIC50 is 0.61 log units higher.

In assay [1], `OC[C@@H]1CCCN1C[C@@H](O)Cn1ccc(-c2ccc3ncnc(Nc4ccc(OCc5cccc(F)c5)c(Cl)c4)c3c2)c1` had a pIC50 of 6.60.

Consider `Fc1cccc(COc2ccc(Nc3ncnc4ccc(-c5c[nH]c(CN6CCC(N7CCCCC7)CC6)c5)cc34)cc2Cl)c1`, for which, in assay [2], the negative-log IC50 (pIC50) was 7.18.

In assay [1], `CC(=O)N[C@@H]1CCN(CC(O)Cn2ccc(-c3ccc4ncnc(Nc5ccc(OCc6cccc(F)c6)c(Cl)c5)c4c3)c2)C1` (some centres not stated) gave a pIC50 of 5.42.

By pIC50 is commonly meant the IC50 on a negative log10 scale, so that one unit is a factor of ten. Read a low pIC50 as a large IC50.
